How the values were obtained:
[1] = system: retrosplenial cortex (RSP) neurons; test: Two-photon imaging of RSP; format: in vivo, mouse
Protocol: Mice were anesthetized with isoflurane and the skull above retrosplenial cortex was removed and replaced with a 7 mm circular glass coverslip. For layer 1 experiments, ThylGcaMP6s mice were used. For layer 2/3 experiments, Cux2-CreER;Ai148 mice were used (tamoxifen dissolved in corn oil was injected intraperitoneally at 0.1 mg/g at least 2 weeks prior to imaging). For layer 5 experiments, Rbp4-Cre mice were injected locally in retrosplenial with 800 nL AAVdj-Ef1a-DIO-GCaMP6f (titer 5E12) at stereotactic coordinates (−3AP, 0.5 ML, −0.6DV). Mice were given >=1 week to recover before imaging. Awake, head-fixed imaging was performed on a standard two photon microscope (NeuroLabWare, Los Angeles, CA). A 16×0.8 NA Nikon objective was immersed in clear ultrasound gel for imaging (Aquasonic, Parker Laboratories); frame rate of 30 Hz. Although we observed oscillations in RSP with 50 mg/kg, we were concerned that 50 mg/kg may be too low a dose to sensitively detect a potentially weaker signal in visual cortex or layer 2/3, and so we used 80 mg/kg in these experiments.
Two-photon tiff stack videos were registered to the average image using the TurboReg ImageJ plug-in using rigid body transformations. […] Contaminating neuropil signal was estimated from an annulus surrounding each soma mask and removed using the function F(t)=Fsoma(t)−0.3*Fneuropil(t), where Fsoma(t) is the somatic DF/F and Fneuropil(t) is the DF/F from an annulus 4 pixels wide surrounding each soma mask. The resulting traces were detrended and z-scored. The full frame fluorescence (used for quantifying layer 1 neuropil oscillations) was computed by summing all of the pixels in each frame on each time point, and then computing DF/F the same way, with no neuropil subtraction step.
Each trace (corresponding to either a fiber photometry signal, a cellular two-photon signal, a widefield regional centroid, a widefield pixel, an sEEG trace, or a smoothed spike rate Neuropixels trace) was z-scored, and the power spectral density (PSD) was then estimated using Welch's method (pwelch( ) in Matlab), with a window size of 10*fs (15*fs for human sEEG) where fs is the sampling rate of the signal. The average band power within a specified band (i.e. 1-3 Hz) was then computed by integrating the PSD estimate (bandpower in Matlab). For displaying the traces of individual cells, traces were each zscored by subtracting the mean value of the trace (across the whole recorded time window) and dividing by the standard deviation of the trace. Unless otherwise indicated, the PSD was computed across the time window from minutes 10 to 11 post-injection.

[2] = system: mice; test: Righting reflex assay; format: in vivo, mouse
Description: Righting Reflex Assay: Mice were held at the neck and tail, rotated to supine position on a flat surface, and quickly released. Time to right was quantified as moment of release to moment when all 4 legs touched the ground. A five second threshold was used to classify righting success (less than 5 seconds) from failure (more than 5 seconds). […] Illumination began for 30 seconds, and then the mouse was swiftly inverted onto the flat surface.

[3] = system: mice; test: Open field test; format: in vivo, mouse; settings: 5 min; vs saline; doses of b234
Description: Open Field Test: Mice were placed in an evenly illuminated 50 cm×50 cm open field test box. Mouse position was captured using a webcam and Viewer software (Biobserve).

[4] = system: mice; test: Observation for seizure-like signs after ketamine; format: in vivo, mouse; settings: dissociative doses of ketamine
Description: One characteristic of seizures is increased synchrony. While the ketamine-induced rhythm involved increased synchrony in neuronal firing, the initiation, spread, maintenance/termination, and behavior were distinguishable from typical seizures.

[5] = system: humans; settings: human; cited from earlier work
[6] = system: mouse; settings: cited from earlier work
[7] = system: mice; test: Hot plate test
Protocol: Hot Plate Test: Mice were placed on the hot plate (Bioseb), which was set to 55° C. and surrounded by a clear circular perimeter. Mouse activity was recorded using two cameras from different angles. The experiment ended when the mouse jumped to escape or 90 seconds had elapsed. Care was taken to clean and dry the hot plate apparatus between animals. For optogenetic experiments, mice were connected to patch cords and then returned to a holding cage. Illumination began 30 seconds before mice were placed on the hot plate.

[8] = system: mouse; test: Ketamine dose-effect relationship in mouse
Protocol: (§1) (2 mg/kg), lidocaine (topical), LSD ((+)-Lysergic acid diethylamide (+)-tartrate (2:1), 0.3 mg/kg), and diazepam (2 mg/kg). […] For anti-depressant effects, human doses are typically 0.3-1 mg/kg, and in mouse 3-10 mg/kg.

[9] = system: retrosplenial cortex (RSP); test: Widefield (pan-cortical) imaging of cortical activity in GCaMP6s mice
Protocol: as §1
As described^8, mice were anesthetized with isoflurane, the scalp was removed, the skull cleaned and dried, and a custom head-plate was cemented to contacts over the cerebellum and in front of the olfactory bulb. The skull was then covered in a thin layer of cyanoacrylate glue (Apollo 2000, Cyberbond), clear dental acrylic (Ortho-Jet, Lang Dental), and clear nail polish (Electron Microscopy Services). […] (0.1 mg/kg) was injected subcutaneously for pain management. […] Imaging was performed on a custom-built fluorescence microscope designed for high light collection efficiency and large field of view. […] Alternating 410 nm and 488 nm illumination for non-Ca^2+ dependent artifact removal was controlled using a microcontroller (Arduino) slaved to the frame output trigger of the camera.
Analysis was performed using custom MATLAB (MathWorks) scripts. Widefield imaging videos were registered to a 2D top-projection atlas generated from the annotated Allen Brain Atlas volume, version CCFv2, in MATLAB (MathWorks), using an affine transformation computed from four manually selected control points. Each video was DF/F normalized, using the median for each pixel over the entire time series as F. The 410 nm channel was then temporally smoothed using a moving average (width=400 ms). The smoothed 410 nm DF/F signal for each pixel was regressed onto the 488 nm DF/F signal for the corresponding pixel, and the regression coefficients were used to scale the 410 nm channel to the 488 nm channel. This scaled 410 nm DF/F signal was then subtracted from the 488 nm DF/F signal to produce a normalized signal for each pixel. For quantification, activity traces were extracted from points centered in five cortical regions (visual, somatosensory, parietal, motor, retrosplenial) on the left hemisphere of the brain. The video data was Gaussian smoothed spatially (radius=2 pixels). Similarly, for fiber photometry recordings, the 410 nm signal was regressed onto the 488 nm signal, the 410 nm signal was scaled by the regression coefficients, and then subtracted from the 488 nm signal.

[10] = controls (wild-type), 50 mg/kg ketamine

CNC1(c2ccccc2Cl)CCCCC1=O (centres unmarked) [ketamine]
Oscillation / population synchrony in layer 2/3 RSP neurons ([1]; Cux2-CreER mice, ketamine): neither oscillating neurons nor population synchrony were observed | Oscillation / population synchrony in layer 5 RSP neurons ([1]; Rbp4-Cre mice, ketamine): exhibited synchronous activity | Hedge's g effect-size, mean 1-3 Hz power before/after ketamine, layer 2/3 RSP cells (FIG. 1I) ([1]; n=5 mice): −0.46 | Hedge's g effect-size, mean 1-3 Hz power before/after ketamine, layer 5 RSP cells (FIG. 1I) ([1]; n=5 mice): 3.16 | Oscillation in superficial neuropil, RSP vs neighboring visual cortex ([1]; two-photon, cranial window, 80 mg/kg): observed the oscillation in RSP but not neighboring visual cortex | Righting-reflex test for consciousness ([2]; anesthetic ketamine 200 mg/kg): abolished by anesthetic ketamine | Righting-reflex test for consciousness ([2]; subanesthetic ketamine doses): preserved in all animals | Righting of postural inversion ([2]; wild-type and knockout mice, ketamine): all mice successfully-righted postural inversion | Open-field locomotion velocity [3]: decreased velocity | Seizure-like signs [4]: no rigidity, convulsive movements, absence-like states, or salivation/rearing/falling were observed | Dose at which potent dissociation is consistently reported [5]: 2 to 3 mg/kg | Doses for anti-depressant effects [5]: 0.3 to 1 mg/kg | Doses for anti-depressant effects [6]: 3 to 10 mg/kg | Affective behavior ([7]; GRIN1 knockouts, ketamine): without recovery of affective behavior | Affective paw-licking ([7]; HCN1-KO mice with RSP Cre-virus, 50 mg/kg ketamine): strikingly restored affective paw-licking | Affective paw-licking [7, 10]: abolished affective paw-licking | Reflexive paw-flicks [7, 10]: preserving reflexive paw-flicks | Affective behaviors ([7]; ketamine 13 mg/kg): consistently preserved at 13 mg/kg | Affective behaviors ([7]; ketamine 25 mg/kg): selectively abolished at 25 mg/kg | Affective/emotional defensive behavior (paw-lick) ([7]; ketamine at 25 and 50 mg/kg): abolished affective/emotional | Motivational defensive behavior (jump-to-escape) ([7]; ketamine at 25 and 50 mg/kg): abolished | Reflexive responses (paw-flick) ([7]; ketamine dose series): did not reduce reflexive responses | Lowest tested dose causing the oscillation and behavioral effects [8]: 25 mg/kg | Time over which ketamine-induced oscillation decayed ([9]; Supplementary Note 2): ~15 min | Time over which ketamine-induced oscillation emerged ([9]; Supplementary Note 2): 2 min | Ketamine-induced 1-3 Hz movements ([9]; ketamine 50 mg/kg i.p.): no ketamine-induced 1-3 Hz movements were observed | Time for rhythm to emerge ([9]; ketamine 50 mg/kg i.p.): ≤ 120 s | Time for rhythm to return to baseline ([9]; ketamine 50 mg/kg i.p.): ~45 min | Magnitude of rhythm on repeated days ([9]; ketamine, five consecutive days): exhibited similar magnitude across five consecutive days | RSP activity-correlations with other dorsal-cortical regions ([9]; subanesthetic ketamine): reduced RSP activity-correlations with all other dorsal-cortical regions | Spread of the ketamine-rhythm ([9]; to other layers or nearby cortical regions): did not spread beyond layer 5 neurons in retrosplenial cortex | Cortical activity pattern: 1-3 Hz oscillation localized to retrosplenial cortex (RSP) ([9]; widefield imaging, i.p., ketamine 50 mg/kg subanesthetic dose, other drugs at doses of b234): a 1-3 Hz oscillation emerged in retrosplenial cortex (RSP), but not in any other cortical region

Source: patent US20230346884A1, “Molecular Targets for Modulation of Dissociative and Associative States” (The Board of Trustees of the Leland Stanford Junior …, priority 2020, published 2023)
